Results from patent publication US20260209220A1, “SUBSTITUTED TETRAHYDROPYRROLO-PYRIDINONE COMPOUNDS AND THEIR USE IN TREATING MEDICAL CONDITIONS” (Karuna Therapeutics, Inc., priority 2022, published 2026).

Biological target: T1, human M4 receptor (Homo sapiens, UniProt P08173)
T1 construct: expressed in transfected cells; host or cells: CHO-K1 cells (membranes)
T1 sequence (P08173 1-479): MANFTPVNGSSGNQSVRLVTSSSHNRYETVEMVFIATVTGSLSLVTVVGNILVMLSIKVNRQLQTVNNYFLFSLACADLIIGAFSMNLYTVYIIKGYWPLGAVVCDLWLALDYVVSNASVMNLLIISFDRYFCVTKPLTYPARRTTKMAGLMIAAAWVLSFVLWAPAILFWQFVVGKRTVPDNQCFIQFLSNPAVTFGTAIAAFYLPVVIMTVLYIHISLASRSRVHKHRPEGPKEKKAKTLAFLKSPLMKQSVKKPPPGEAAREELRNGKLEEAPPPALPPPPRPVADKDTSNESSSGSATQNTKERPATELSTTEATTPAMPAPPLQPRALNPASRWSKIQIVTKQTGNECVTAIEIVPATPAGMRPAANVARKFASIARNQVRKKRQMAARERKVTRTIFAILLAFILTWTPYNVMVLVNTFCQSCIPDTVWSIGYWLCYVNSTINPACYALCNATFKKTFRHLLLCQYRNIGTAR
Experiment: M4 GTPγS PAM assay (CHO-K1 membranes, 35S-GTP binding, with EC20 acetylcholine)
Assay type: biochemical
Conditions: with EC20 acetylcholine (40 nM)
Outline: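 Membranes from CHO-K1 cells stably expressing human M4 ([…]) in 20 mM HEPES, 10 mM MgCl2, 100 mM NaCl, with 0.1 μM GDP final, were preincubated with compound 10-15 min at RT. Acetylcholine at EC20 (40 nM final) was added for 10-15 min, then 0.4 nM 35S-GTP solution for 1 h at RT. Filter-bound radioactivity was counted.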

| Compound | EC50 [µM] |
| --- | --- |
| Cc1c2c(n(C)c(=O)c1F)CN(C(=O)CC1CN(c3ccc(C4CC4)c(F)c3)C1)C2 [Compound I-88] | < 0.05 |
| Cc1cc(=O)n(C)c2c1CN(C(=O)CC1CN(c3cc(F)cc(C4CC4)c3)C1)C2 [Compound I-4] | < 0.05 |
| Cc1cc(=O)n(C)c2c1CN(C(=O)CC1CN(c3cccc(F)c3F)C1)C2 [Compound I-14] | 0.05 to 0.2 |
| Cc1c2c(n(C)c(=O)c1C)CN(C(=O)CC1CN(c3ccnc(C(F)(F)F)c3)C1)C2 [Compound I-42, 1,3,4-Trimethyl-6-(2-(1-(2-(trifluoromethyl)pyridin-4-yl)azetidin-3-yl)acetyl)-1,5,6,7-tetrahydro-2H-pyrrolo[3,4-b]pyridin-2-one] | < 0.05 |
